# Assay results taken from PubChem BioAssay (NCI).
#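 The compound was tested at five concentrations on cells cultured in 96-well plates, with a 48-hour exposure period. GI50 is the concentration that inhibits growth by half. Definition used: TGI = concentration required for complete inhibition of growth.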
# Experiments:
# Assay in all cases: NCI-60 cell line screen, 48 h
# HS 578T breast = tested on: HS 578T breast
# ACHN renal = tested on: ACHN renal
# NCI-H522 lung = tested on: NCI-H522 lung
# EKVX NSCLC = tested on: EKVX NSCLC
# HCT-15 colon = tested on: HCT-15 colon
# MDA-MB-231 breast = tested on: MDA-MB-231 breast
# TK-10 renal = tested on: TK-10 renal
# MALME-3M melanoma = tested on: MALME-3M melanoma
# SK-MEL-2 melanoma = tested on: SK-MEL-2 melanoma
# SK-OV-3 ovarian = tested on: SK-OV-3 ovarian
# CAKI-1 renal = tested on: CAKI-1 renal
# CCRF-CEM leukemia = tested on: CCRF-CEM leukemia
# K-562 leukemia = tested on: K-562 leukemia
# HCC-2998 colon = tested on: HCC-2998 colon
# SF-539 CNS = tested on: SF-539 CNS
# LOX IMVI melanoma = tested on: LOX IMVI melanoma
# SK-MEL-5 melanoma = tested on: SK-MEL-5 melanoma
# UACC-257 melanoma = tested on: UACC-257 melanoma
# SNB-75 CNS = tested on: SNB-75 CNS
# HL-60(TB) leukemia = tested on: HL-60(TB) leukemia
# HCT-116 colon = tested on: HCT-116 colon
# SW-620 colon = tested on: SW-620 colon
# IGROV1 ovarian = tested on: IGROV1 ovarian
# UACC-62 melanoma = tested on: UACC-62 melanoma
# OVCAR-4 ovarian = tested on: OVCAR-4 ovarian
# OVCAR-5 ovarian = tested on: OVCAR-5 ovarian
# SR leukemia = tested on: SR leukemia
# A549 NSCLC = tested on: A549 NSCLC
# UO-31 renal = tested on: UO-31 renal
# MDA-MB-435 = tested on: MDA-MB-435
# MCF7 breast = tested on: MCF7 breast
# HOP-62 NSCLC = tested on: HOP-62 NSCLC
# RPMI-8226 leukemia = tested on: RPMI-8226 leukemia
# SF-295 CNS = tested on: SF-295 CNS
# DU-145 prostate = tested on: DU-145 prostate
# T-47D breast = tested on: T-47D breast
# SNB-19 CNS = tested on: SNB-19 CNS
# 786-0 renal = tested on: 786-0 renal
# NCI-H23 lung = tested on: NCI-H23 lung
# COLO 205 colon = tested on: COLO 205 colon
# SK-MEL-28 melanoma = tested on: SK-MEL-28 melanoma
# MOLT-4 leukemia = tested on: MOLT-4 leukemia
# NCI-H460 lung = tested on: NCI-H460 lung
# NCI-H226 lung = tested on: NCI-H226 lung
# HT29 colon = tested on: HT29 colon
# BT-549 breast = tested on: BT-549 breast
# U251 CNS = tested on: U251 CNS
# PC-3 prostate = tested on: PC-3 prostate
# SF-268 CNS = tested on: SF-268 CNS
# A498 renal = tested on: A498 renal
# NCI/ADR-RES ovarian = tested on: NCI/ADR-RES ovarian
# SN12C renal = tested on: SN12C renal
# OVCAR-8 ovarian = tested on: OVCAR-8 ovarian
# OVCAR-3 ovarian = tested on: OVCAR-3 ovarian
# M14 melanoma = tested on: M14 melanoma
# KM12 colon = tested on: KM12 colon
compound,measurement,setting,value
Nc1ccncc1/C=C1/C(=O)Nc2ccccc21,GI50,HS 578T breast,41.2 µM
same,TGI,HS 578T breast,> 100 µM
same,GI50,ACHN renal,43.7 µM
same,TGI,ACHN renal,> 100 µM
same,GI50,NCI-H522 lung,24 µM
same,TGI,NCI-H522 lung,71.6 µM
same,GI50,EKVX NSCLC,47.2 µM
same,TGI,EKVX NSCLC,> 100 µM
same,GI50,HCT-15 colon,36.5 µM
same,TGI,HCT-15 colon,> 100 µM
same,GI50,MDA-MB-231 breast,50.1 µM
same,TGI,MDA-MB-231 breast,> 100 µM
same,GI50,TK-10 renal,54.7 µM
same,TGI,TK-10 renal,> 100 µM
same,GI50,MALME-3M melanoma,20.6 µM
same,TGI,MALME-3M melanoma,80.9 µM
same,GI50,SK-MEL-2 melanoma,19.4 µM
same,TGI,SK-MEL-2 melanoma,87.3 µM
same,GI50,SK-OV-3 ovarian,46.7 µM
same,TGI,SK-OV-3 ovarian,> 100 µM
same,GI50,CAKI-1 renal,30.2 µM
same,TGI,CAKI-1 renal,89.7 µM
same,GI50,CCRF-CEM leukemia,68.3 µM
same,TGI,CCRF-CEM leukemia,> 100 µM
same,GI50,K-562 leukemia,33.6 µM
same,TGI,K-562 leukemia,> 100 µM
same,GI50,HCC-2998 colon,25.3 µM
same,TGI,HCC-2998 colon,59.9 µM
same,GI50,SF-539 CNS,34.6 µM
same,TGI,SF-539 CNS,> 100 µM
same,GI50,LOX IMVI melanoma,28 µM
same,TGI,LOX IMVI melanoma,> 100 µM
same,GI50,SK-MEL-5 melanoma,28 µM
same,TGI,SK-MEL-5 melanoma,> 100 µM
same,GI50,UACC-257 melanoma,> 100 µM
same,TGI,UACC-257 melanoma,> 100 µM
same,GI50,SNB-75 CNS,18.5 µM
same,TGI,SNB-75 CNS,63.2 µM
same,GI50,HL-60(TB) leukemia,14.5 µM
same,TGI,HL-60(TB) leukemia,39.8 µM
same,GI50,HCT-116 colon,43.9 µM
same,TGI,HCT-116 colon,> 100 µM
same,GI50,SW-620 colon,31.4 µM
same,TGI,SW-620 colon,> 100 µM
same,GI50,IGROV1 ovarian,29 µM
same,TGI,IGROV1 ovarian,> 100 µM
same,GI50,UACC-62 melanoma,32.5 µM
same,TGI,UACC-62 melanoma,> 100 µM
same,GI50,OVCAR-4 ovarian,33.4 µM
same,TGI,OVCAR-4 ovarian,> 100 µM
same,GI50,OVCAR-5 ovarian,75.3 µM
same,TGI,OVCAR-5 ovarian,> 100 µM
same,GI50,SR leukemia,23.2 µM
same,TGI,SR leukemia,> 100 µM
same,GI50,A549 NSCLC,56.9 µM
same,TGI,A549 NSCLC,> 100 µM
same,GI50,UO-31 renal,18.9 µM
same,TGI,UO-31 renal,> 100 µM
same,GI50,MDA-MB-435,14.4 µM
same,TGI,MDA-MB-435,35.4 µM
same,GI50,MCF7 breast,26.6 µM
same,TGI,MCF7 breast,> 100 µM
same,GI50,HOP-62 NSCLC,23.6 µM
same,TGI,HOP-62 NSCLC,81.6 µM
same,GI50,RPMI-8226 leukemia,> 100 µM
same,TGI,RPMI-8226 leukemia,> 100 µM
same,GI50,SF-295 CNS,28.2 µM
same,TGI,SF-295 CNS,79 µM
same,GI50,DU-145 prostate,44.9 µM
same,TGI,DU-145 prostate,> 100 µM
same,GI50,T-47D breast,> 100 µM
same,TGI,T-47D breast,> 100 µM
same,GI50,SNB-19 CNS,36.8 µM
same,TGI,SNB-19 CNS,> 100 µM
same,GI50,786-0 renal,34.8 µM
same,TGI,786-0 renal,> 100 µM
same,GI50,NCI-H23 lung,31.9 µM
same,TGI,NCI-H23 lung,> 100 µM
same,GI50,COLO 205 colon,19.8 µM
same,TGI,COLO 205 colon,> 100 µM
same,GI50,SK-MEL-28 melanoma,28.9 µM
same,TGI,SK-MEL-28 melanoma,> 100 µM
same,GI50,MOLT-4 leukemia,37.3 µM
same,TGI,MOLT-4 leukemia,> 100 µM
same,GI50,NCI-H460 lung,28.4 µM
same,TGI,NCI-H460 lung,> 100 µM
same,GI50,NCI-H226 lung,40.5 µM
same,TGI,NCI-H226 lung,> 100 µM
same,GI50,HT29 colon,27.8 µM
same,TGI,HT29 colon,> 100 µM
same,GI50,BT-549 breast,40.2 µM
same,TGI,BT-549 breast,> 100 µM
same,GI50,U251 CNS,47.9 µM
same,TGI,U251 CNS,> 100 µM
same,GI50,PC-3 prostate,41.1 µM
same,TGI,PC-3 prostate,> 100 µM
same,GI50,SF-268 CNS,28 µM
same,TGI,SF-268 CNS,> 100 µM
same,GI50,A498 renal,18.7 µM
same,TGI,A498 renal,52.7 µM
same,GI50,NCI/ADR-RES ovarian,35.9 µM
same,TGI,NCI/ADR-RES ovarian,> 100 µM
same,GI50,SN12C renal,18.3 µM
same,TGI,SN12C renal,> 100 µM
same,GI50,OVCAR-8 ovarian,62.5 µM
same,TGI,OVCAR-8 ovarian,> 100 µM
same,GI50,OVCAR-3 ovarian,25.4 µM
same,TGI,OVCAR-3 ovarian,76.3 µM
same,GI50,M14 melanoma,20.5 µM
same,TGI,M14 melanoma,59.6 µM
same,GI50,KM12 colon,25 µM
same,TGI,KM12 colon,> 100 µM
